A short description of data set [1]: Percent compound remaining in human plasma after incubation for 60 min at 37 C. The class given is ADME, cell-free. The settings on record: read-out: Stability.
Data set [2] deals with T1, Chymase (Homo sapiens) (UniProt P23946).
T1 sequence (whole entry): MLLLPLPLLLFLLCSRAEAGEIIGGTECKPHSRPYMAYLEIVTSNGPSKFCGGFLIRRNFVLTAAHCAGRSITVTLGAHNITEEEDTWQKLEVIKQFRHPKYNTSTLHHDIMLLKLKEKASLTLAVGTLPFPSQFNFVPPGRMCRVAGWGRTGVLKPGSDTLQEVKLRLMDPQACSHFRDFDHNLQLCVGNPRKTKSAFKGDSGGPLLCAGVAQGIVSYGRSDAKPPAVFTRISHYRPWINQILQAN
The data set can be described thus: Inhibitory activity against serine protease chymase was determined at 1 uM.

The target in data set [3] is T2, Chymase (Homo sapiens, UniProt P23946).
T2 sequence (P23946 whole entry): T1 sequence (whole entry)
The data set can be described thus: Inhibitory concentration against serine protease chymase was determined.

The target of data set [4] is T1, Chymase (Homo sapiens). The data set can be described thus: Inhibitory activity against serine protease chymase was determined.
The nature of data set [5]: Percent remaining in human plasma after incubation for 60 min at 37 C. In kind it is ADME, cell-free. The settings on record: read-out: Stability.

Data on 29 compounds can be found in ChEMBL document CHEMBL1136416, “Identification of a stable chymase inhibitor using a pharmacophore-Based database search” (Bioorg Med Chem Lett, 2003).

“And” between values parts separate entries of the source, which are not always exact repeats. Equal entries are not always repeated.

In the case of `CCCS(=O)(=O)c1ccc(NS(=O)(=O)c2sc3ccc(Cl)cc3c2C)cc1`, the remaining at 1 h in data set [1] is 100%. The compound further came in with an inhibition in data set [2] above 30%. In data set [3], 909 nM corresponded to half-maximal inhibition (IC50). As for `O=C(Oc1ccc(Cl)cc1)c1cnc(C2COc3ccccc3O2)s1` (centres undefined), the remaining at 1 h in data set [1] came to 11.8%. In addition, the figures for the inhibition in data set [4] (concentration not given here) and in data set [2] were 17.8% and above 30%, respectively. `Clc1ccc(CNc2nnc(Sc3nc4ccccc4s3)s2)cc1` gave an Inhibitory activity in data set [4] of 321 µM. `Cc1ccc(-c2nnc(NC(=O)c3ccc4ccccc4c3)s2)o1` displayed an Inhibitory activity in data set [4] of 87 µM.

`COC(=O)C(c1ccc2ccccc2c1)N1C(=O)S/C(=C\c2ccc(C)o2)C1=O` (centres undefined) registered an Inhibitory activity in data set [4] of 4.22 µM. Same read-out and setting: in the case of `O=C(Nc1nnc(SCc2nc3ccccc3s2)s1)c1ccc(Cl)cc1` it was 27 µM; in that of `Cc1ccc(/C=C2\SCCN(C(=O)c3ccc4ccccc4c3)C2=O)o1`, 4.54 µM; in that of `O=C1ON(C(=O)c2ccc3ccccc3c2)C(=O)/C1=C/c1ccc(O)c(O)c1`, 53 µM.

`Cc1ccc(/C=C2\SC(=O)N(C(=O)c3ccc4ccccc4c3)C2=O)o1` showed an Inhibitory activity in data set [4] of 0.097 µM. Take `Cc1ccc(/C=C2\SC(=O)N(Cc3ccc4ccccc4c3)C2=O)o1`: the Inhibitory activity in data set [4] amounted to 190 µM. Still for that read-out and setting: in the case of `O=c1n(S(=O)(=O)c2ccc3ccccc3c2)c2ccccc2n1S(=O)(=O)c1ccc2ccccc2c1` it was 3.46 µM; in that of `COC(=O)c1ccc(C(=O)n2cnc3cc4ccccc4cc3c2=O)cc1`, 0.61 µM.

`O=C(Nc1nnc(Sc2nc3ccccc3s2)s1)C(Cl)(Cl)Cl` had an Inhibitory activity in data set [4] of 14 µM. On the same count and under the same terms, in the case of `O=C1S/C(=C\c2ccsc2)C(=O)N1C(=O)c1ccc2ccccc2c1` it was 0.081 µM; in that of `Cc1ccc(C(=O)Nc2nnc(SC(=O)c3ccc(C)cc3)s2)cc1`, 48 µM. Consider `O=C1c2ccccc2C(=O)N1S(=O)(=O)c1ccc2ccccc2c1`, for which the Inhibitory activity in data set [4] turned out to be 176 µM. Same read-out and setting: under `Cc1ccc(/C=C2\SC(=O)N(C(=O)c3cccc(-c4ccccc4)c3)C2=O)o1` stands 0.683 µM. On the same count and under the same terms, under `Cc1ccc(/C=C2\SC(=O)N(CSc3ccc4ccccc4c3)C2=O)o1` stands 141 µM.

In data set [4], `Cc1ccc(C(=O)Nc2nnc(C(=O)c3ccccc3)s2)cc1` returned an Inhibitory activity of 75 µM. As to `Cc1ccc(/C=C2\SC(=O)N(CS(=O)(=O)c3ccc4ccccc4c3)C2=O)o1`, the Inhibitory activity in data set [4] is 24 µM. Turning to `Cc1ccc(C(=O)Sc2nnc(SC(=O)c3ccc(C)cc3)s2)cc1`, the Inhibitory activity in data set [4] was determined as 3.24 µM. `O=C(Nc1nnc(Sc2nc3ccccc3s2)s1)c1ccc(Cl)cc1`: the Inhibitory activity in data set [4] was 0.308 µM. Turning to `CSc1[nH]nc(NC(=O)c2ccc(Cl)cc2)c1S(=O)(=O)c1ccc(Cl)cc1`, the remaining at 1 h in data set [5] stood at 6.4%. Further, the inhibition in data set [2] was 36.5% and > 30%. Consider `O=C1SC(Cc2ccc3ccccc3c2)C(=O)N1Cc1ccoc1` (centres undefined), for which the Inhibitory activity in data set [4] was found to be 273 µM. The compound `O=C1ON(S(=O)(=O)c2ccc3ccccc3c2)C(=O)/C1=C/c1ccc(F)cc1` displayed an Inhibitory activity in data set [4] of 608 µM. The same measure, in the same setting: under `O=C(Nc1nnc(Sc2nc3ccccc3s2)s1)c1ccccc1` stands 1.34 µM; under `O=C1S/C(=C/c2ccc(O)cc2)C(=O)N1S(=O)(=O)c1ccc2ccccc2c1`, 0.691 µM. The same measure, in the same setting: in the case of `Cc1ccc(/C=C2\SC(C)(C)N(C(=O)c3ccc4ccccc4c3)C2=O)o1` it was 8.91 µM.

In the case of `O=C(Oc1ccccc1)N1C(=O)S/C(=C\c2ccco2)C1=O`, in data set [4], the Inhibitory activity amounted to 3.6 µM.
